Holding throughout (assay): Kinase selectivity, DiscoverX scanMAX Kinase assay panel (% control)
What all share (type): binding

Assay [1] deals with T1, kinases of the scanMAX Kinase assay panel (Homo sapiens, UniProt P78356).
T1 construct: purchased DiscoverX Co. (contract measurement) scanMAX Kinase assay panel
T1 sequence (P78356 1-416): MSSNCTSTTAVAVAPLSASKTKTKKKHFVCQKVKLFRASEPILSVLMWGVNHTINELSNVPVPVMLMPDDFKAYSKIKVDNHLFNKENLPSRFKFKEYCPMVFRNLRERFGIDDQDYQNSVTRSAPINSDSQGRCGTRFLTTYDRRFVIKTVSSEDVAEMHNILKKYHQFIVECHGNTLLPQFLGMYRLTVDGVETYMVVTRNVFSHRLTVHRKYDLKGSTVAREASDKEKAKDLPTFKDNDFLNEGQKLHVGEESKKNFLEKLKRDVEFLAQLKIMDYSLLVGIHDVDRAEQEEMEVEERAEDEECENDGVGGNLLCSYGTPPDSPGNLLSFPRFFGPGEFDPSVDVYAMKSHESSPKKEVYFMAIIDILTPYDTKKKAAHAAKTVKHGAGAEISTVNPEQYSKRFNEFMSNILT
Particulars: PIP5K2B; 1 uM. The essentials:
(§1)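 Compounds tested at 1 uM against the scanMAX kinase panel. Signal expressed as % control = (compound − positive control)/(DMSO negative control − positive control) × 100, where positive control = 0% and DMSO = 100%; below 35% counted as activity on that kinase.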

For assay [2], the target named is T2, kinases of the scanMAX Kinase assay panel (Homo sapiens, UniProt Q86YV6).
T2 construct: purchased DiscoverX Co. (contract measurement) scanMAX Kinase assay panel
T2 sequence (Q86YV6 1-388): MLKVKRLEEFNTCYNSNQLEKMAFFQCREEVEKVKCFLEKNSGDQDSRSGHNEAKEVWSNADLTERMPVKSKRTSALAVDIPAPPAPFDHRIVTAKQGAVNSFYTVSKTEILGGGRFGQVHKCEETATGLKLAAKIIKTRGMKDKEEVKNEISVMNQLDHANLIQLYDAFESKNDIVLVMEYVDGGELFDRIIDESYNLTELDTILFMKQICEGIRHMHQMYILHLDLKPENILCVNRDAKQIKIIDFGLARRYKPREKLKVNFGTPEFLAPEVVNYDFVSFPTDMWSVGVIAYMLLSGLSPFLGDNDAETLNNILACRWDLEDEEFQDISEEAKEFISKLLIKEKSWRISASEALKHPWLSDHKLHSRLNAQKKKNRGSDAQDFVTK
The settings on record: MYLK4; 1 uM. In a few lines:
as §1

Assay [3] addresses T3, kinases of the scanMAX Kinase assay panel (Homo sapiens, UniProt P00519, T315I).
T3 construct: purchased DiscoverX Co. (contract measurement) scanMAX Kinase assay panel
Particulars: 1 uM. The essentials: as §1

For assay [4], the target named is T4, kinases of the scanMAX Kinase assay panel (Homo sapiens, UniProt Q9NRH2).
T4 construct: purchased DiscoverX Co. (contract measurement) scanMAX Kinase assay panel
T4 sequence (Q9NRH2 1-765): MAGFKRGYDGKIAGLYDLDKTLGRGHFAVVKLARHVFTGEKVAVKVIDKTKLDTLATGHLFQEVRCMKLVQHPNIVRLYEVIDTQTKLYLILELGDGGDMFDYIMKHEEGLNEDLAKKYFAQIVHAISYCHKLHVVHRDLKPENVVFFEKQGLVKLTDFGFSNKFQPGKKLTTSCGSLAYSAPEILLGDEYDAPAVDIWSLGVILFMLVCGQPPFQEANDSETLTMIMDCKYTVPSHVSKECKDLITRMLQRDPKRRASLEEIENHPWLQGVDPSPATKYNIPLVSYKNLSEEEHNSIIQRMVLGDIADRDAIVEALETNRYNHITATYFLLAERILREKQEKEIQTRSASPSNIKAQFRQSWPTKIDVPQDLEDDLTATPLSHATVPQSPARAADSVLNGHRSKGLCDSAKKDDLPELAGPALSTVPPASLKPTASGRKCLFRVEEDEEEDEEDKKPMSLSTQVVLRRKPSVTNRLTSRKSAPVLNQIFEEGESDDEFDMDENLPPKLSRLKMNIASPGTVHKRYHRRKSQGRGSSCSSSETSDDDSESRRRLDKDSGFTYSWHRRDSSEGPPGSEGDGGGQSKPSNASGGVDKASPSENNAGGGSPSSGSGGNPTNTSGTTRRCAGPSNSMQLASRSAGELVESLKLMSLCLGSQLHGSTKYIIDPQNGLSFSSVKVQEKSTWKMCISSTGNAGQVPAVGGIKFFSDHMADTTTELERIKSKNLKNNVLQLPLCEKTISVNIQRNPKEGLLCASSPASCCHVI
The settings on record: kinase SNRK; 1 uM in DMSO. In a few lines: as §1

Take `CNc1nc(Nc2ccc(C(=O)N3CCOCC3)cc2OC)nc2[nH]cc(C#N)c12` [Example 1, 2-((2-methoxy-4-(morpholine-4-carbonyl)phenyl)amino)-4-(methylamino)-7H-pyrrolo[2,3-d]pyrimidine-5-carbonitrile]: the remaining binding at 1 µM in assay [1] was 100%; in assay [2] it was 90%; in assay [3] (ABL1(T315I)-nonphosphorylated), 83%; in assay [3] (ABL1(T315I)-phosphorylated), 59%; in assay [4], 64%.

Regarding `CC1(Nc2nc(Nc3cnn([C@H]4CCN(C5COC5)C[C@@H]4F)c3Cl)nc3[nH]cc(C#N)c23)CC1` [Example 52, 2-((5-chloro-1-((3S,4S)-3-fluoro-1-(oxetane-3-yl)piperidine-4-yl)-1H-pyrazole-4-yl)amino)((1-methylcyclopropyl)amino)-7H-pyrrolo[2,3-d]pyrimidine-5-carbonitrile], the remaining binding at 1 µM was 0.45% in assay [1]; 82% in assay [2]; 0% in assay [3] (ABL1(T315I)-nonphosphorylated); 0.05% in assay [3] (ABL1(T315I)-phosphorylated); 7.6% in assay [4].

On to `CCNc1nc(Nc2ccc(C(=O)N3CCC(N4CCOCC4)CC3)cc2OC)nc2[nH]cc(C(F)(F)F)c12` [Example 104, (4-((4-(ethylamino)-5-(trifluoromethyl)-7H-pyrrolo[2,3-d]pyrimidine-2-yl)amino)-3-methoxyphenyl)(4-morpholinopiperidine-1-yl)methanone], for which the remaining binding at 1 µM in assay [1] was determined as 100%; in assay [2], 89%; in assay [3] (ABL1(T315I)-nonphosphorylated), 100%; in assay [3] (ABL1(T315I)-phosphorylated) it was 98%; in assay [4], 69%.
